Starred links: 1 amine or outer side, 2 acyl side, 3 side chain; linkers in the order of their positions; H or OH if unused. Positions of bridges follow the written chain, without caps; N, C: chain ends. Residues, ends and D or L forms follow the SMILES beside them. *: point of attachment. C20 diacid = O=C(O)CCCCCCCCCCCCCCCCCCC(=O)*; γGlu = O=C(O)[C@H](CCC(=O)[*:2])N[*:1]
Test: Assay (III) ThT fibrillation assay for physical stability
Format: physicochemical
Conditions: for Th T pH 4.0 lag time (h): 37° C., orbital shaking 960 rpm; for ThT pH 4.0 lag time: Table 9
Source text: Low physical stability of a polypeptide may lead to amyloid fibril formation, which is observed as well-ordered, thread-like macromolecular structures in the sample eventually resulting in gel formation. This has traditionally been measured by visual inspection of the sample. However, that kind of measurement is very subjective and depending on the observer. Therefore, the application of a small molecule indicator probe is much more advantageous. Thioflavin T (ThT) is such a probe and has a distinct fluorescence signature when binding to fibrils [Naiki et al. (1989) Anal. Biochem. 177, 244-249; LeVine (1999) Methods. Enzymol. […], 274-284].
The time course for fibril formation can be described by a sigmoidal curve with the following expression [Nielsen et al. (2001) Biochemistry 40, 6036-6046]:
[formula] Here, F is the ThT fluorescence at the time t. The constant t0 is the time needed to reach 50% of maximum fluorescence. The two important parameters describing fibril formation are the lag-time calculated by t0−2T and the apparent rate constant kapp=1/τ.
Few of those intermediates nucleate to form a template onto which further intermediates may assembly and the fibrillation proceeds. The lag-time corresponds to the interval in which the critical mass of nucleus is built up and the apparent rate constant is the rate with which the fibril itself is formed.
Samples were prepared freshly before each assay. Each sample composition is described in each example. The pH of the sample was adjusted to the desired value using appropriate amounts of concentrated NaOH and HClO4 or HCl. Thioflavin T was added to the samples from a stock solution in H2O to a final concentration of 1 μM.
Sample aliquots of 200 μl were placed in a 96 well microtiter plate (Packard OptiPlate™-96, white polystyrene). Usually, four or eight replica of each sample (corresponding to one test condition) were placed in one column of wells. The plate was sealed with Scotch Pad (Qiagen).
Incubation at given temperature, shaking and measurement of the ThT fluorescence emission were done in a Fluoroskan Ascent FL fluorescence platereader or Varioskan platereader (Thermo Labsystems). The temperature was adjusted to 37° C. The orbital shaking was adjusted to 960 rpm with an amplitude of 1 mm in all the presented data. Fluorescence measurement was done using excitation through a 444 nm filter and measurement of emission through a 485 nm filter.
Each run was initiated by incubating the plate at the assay temperature for 10 min. The plate was measured every 20 minutes for a desired period of time. Between each measurement, the plate was shaken and heated as described.
The measurement points were saved in Microsoft Excel format for further processing and curve drawing and fitting was performed using GraphPad Prism. The background emission from ThT in the absence of fibrils was negligible. The data points are typically a mean of four or eight samples and shown with standard deviation error bars. Only data obtained in the same experiment (i.e. samples on the same plate) are presented in the same graph ensuring a relative measure of fibrillation […].
The data set may be fitted to Eq. (1). However, since full sigmodial curves in this case are not always achieved during the measurement time, the degree of fibrillation is expressed as ThT fluorescence tabulated as the mean of the samples and shown with the standard deviation at various time points.
The polypeptide concentration in each of the tested formulations were measured both before application in the ThT fibrillation assay (“Initial”) and after completion of the ThT fibrillation (“After ThT assay”). Concentrations were determined by reverse HPLC methods using a pramlintide standard as a reference. Before measurement after completion 150 μl was collected from each of the replica and transferred to an Eppendorf tube. These were centrifuged at 30000 G for 40 mins. […]

| Th T pH 4.0 lag time (h) | ThT pH 4.0 lag time [hr] | Compound |
| --- | --- | --- |
| >45 | >45 | CC[C@H](C)[C@H](NC(=O)[C@@H]1CCCN1C(=O)CNC(=O)[C@H](Cc1ccccc1)NC(=O)[C@H](CC(N)=O)NC(=O)[C@H](CCC(N)=O)NC(=O)[C@H](CO)NC(=O)[C@H](CO)NC(=O)[C@H](Cc1c[nH]cn1)NC(=O)[C@H](Cc1c[nH]cn1)NC(=O)[C@H](CC(C)C)NC(=O)[C@H](Cc1ccccc1)NC(=O)[C@H](CCC(=O)O)NC(=O)[C@H](C)NC(=O)[C@H](CC(C)C)NC(=O)[C@H](CCCNC(=N)N)NC(=O)[C@H](CCC(N)=O)NC(=O)[C@@H](NC(=O)[C@H](C)NC(=O)[C@@H]1CSSC[C@H](NC(=O)[C@H](CCCCN)NC(=O)CC[C@H](NC(=O)CCCCCCCCCCCCCCCCCCC(=O)O)C(=O)O)C(=O)N[C@@H](CC(N)=O)C(=O)N[C@@H]([C@@H](C)O)C(=O)N[C@@H](C)C(=O)N[C@@H]([C@@H](C)O)C(=O)N1)[C@@H](C)O)C(=O)N[C@@H](CC(C)C)C(=O)N1CCC[C@H]1C(=O)N1CCC[C@H]1C(=O)N[C@H](C(=O)N[C@@H](CC(N)=O)C(=O)N[C@H](C(=O)NCC(=O)N[C@@H](CO)C(=O)N[C@@H](CCC(N)=O)C(=O)N[C@H](C(=O)N1CCC[C@H]1C(N)=O)[C@@H](C)O)C(C)C)[C@@H](C)O [Example 136, N-alpha-[(S)-4-Carboxy-4-(19-carboxynonadecanoylamino)butyryl]-[Glu14, His17, Gln21, Gln35, Pro37]-pramlintide] ({C20 diacid-γGlu}-KCNTATCATQRLAEFLHHSSQNFGPILPPTNVGSQTP-NH2; disulfide 2-7) |
| >45 | >45 | CC[C@H](C)[C@H](NC(=O)[C@@H]1CCCN1C(=O)CNC(=O)[C@H](Cc1ccccc1)NC(=O)[C@H](CC(N)=O)NC(=O)[C@H](CC(N)=O)NC(=O)[C@H](CO)NC(=O)[C@H](CO)NC(=O)[C@H](Cc1c[nH]cn1)NC(=O)[C@H](CCCNC(=N)N)NC(=O)[C@H](CC(C)C)NC(=O)[C@H](Cc1ccccc1)NC(=O)[C@H](CCC(=O)O)NC(=O)[C@H](C)NC(=O)[C@H](CC(C)C)NC(=O)[C@H](CCCNC(=N)N)NC(=O)[C@H](CCC(N)=O)NC(=O)[C@@H](NC(=O)[C@H](C)NC(=O)[C@@H]1CSSC[C@H](NC(=O)[C@H](Cc2c[nH]cn2)NC(=O)CC[C@H](NC(=O)CCCCCCCCCCCCCCCCCCC(=O)O)C(=O)O)C(=O)N[C@@H](CC(N)=O)C(=O)N[C@@H]([C@@H](C)O)C(=O)N[C@@H](C)C(=O)N[C@@H]([C@@H](C)O)C(=O)N1)[C@@H](C)O)C(=O)N[C@@H](CC(C)C)C(=O)N1CCC[C@H]1C(=O)N1CCC[C@H]1C(=O)N[C@H](C(=O)N[C@@H](CC(N)=O)C(=O)N[C@H](C(=O)NCC(=O)N[C@@H](CO)C(=O)N[C@@H](CC(N)=O)C(=O)N[C@H](C(=O)N1CCC[C@H]1C(N)=O)[C@@H](C)O)C(C)C)[C@@H](C)O [Example 90, N-alpha-[(S)-4-Carboxy-4-(19-carboxynonadecanoylamino)butyryl]-[His1, Glu14, Arg17, Pro37]-pramlintide] ({C20 diacid-γGlu}-HCNTATCATQRLAEFLRHSSNNFGPILPPTNVGSNTP-NH2; disulfide 2-7 (inferred); C-terminus assumed) |
| >45 | >45 | CC[C@H](C)[C@H](NC(=O)[C@@H]1CCCN1C(=O)CNC(=O)[C@H](Cc1ccccc1)NC(=O)[C@H](CC(N)=O)NC(=O)[C@H](CCC(N)=O)NC(=O)[C@H](CO)NC(=O)[C@H](CO)NC(=O)[C@H](Cc1c[nH]cn1)NC(=O)[C@H](CCCNC(=N)N)NC(=O)[C@H](CC(C)C)NC(=O)[C@H](Cc1ccccc1)NC(=O)[C@H](CCC(=O)O)NC(=O)[C@H](C)NC(=O)[C@H](CC(C)C)NC(=O)[C@H](CCCNC(=N)N)NC(=O)[C@H](CCC(N)=O)NC(=O)[C@@H](NC(=O)[C@H](C)NC(=O)[C@@H]1CSSC[C@H](NC(=O)[C@H](CCC(=O)O)NC(=O)[C@H](CCCNC(=N)N)NC(=O)[C@H](CCC(=O)O)NC(=O)CC[C@H](NC(=O)CCCCCCCCCCCCCCCCCCC(=O)O)C(=O)O)C(=O)N[C@@H](CC(N)=O)C(=O)N[C@@H]([C@@H](C)O)C(=O)N[C@@H](C)C(=O)N[C@@H]([C@@H](C)O)C(=O)N1)[C@@H](C)O)C(=O)N[C@@H](CC(C)C)C(=O)N1CCC[C@H]1C(=O)N1CCC[C@H]1C(=O)N[C@H](C(=O)N[C@@H](CC(N)=O)C(=O)N[C@H](C(=O)NCC(=O)N[C@@H](CO)C(=O)N[C@@H](CC(N)=O)C(=O)N[C@H](C(=O)N1CCC[C@H]1C(N)=O)[C@@H](C)O)C(C)C)[C@@H](C)O [Example 161, N-alpha-[(S)-4-Carboxy-4-(19-carboxynonadecanoylamino)butyryl]-Glu-Arg-[Glu1, Glu14, Arg17, Gln21, Pro37]-pramlintide] ({C20 diacid-γGlu}-ERECNTATCATQRLAEFLRHSSQNFGPILPPTNVGSNTP-NH2; disulfide 4-9 (inferred); C-terminus assumed) |
| >45 | >45 | CC[C@H](C)[C@H](NC(=O)[C@@H]1CCCN1C(=O)CNC(=O)[C@H](Cc1ccccc1)NC(=O)[C@H](CC(N)=O)NC(=O)[C@H](CCC(N)=O)NC(=O)[C@H](CO)NC(=O)[C@H](CO)NC(=O)[C@H](Cc1c[nH]cn1)NC(=O)[C@H](CCCNC(=N)N)NC(=O)[C@H](CC(C)C)NC(=O)[C@H](Cc1ccccc1)NC(=O)[C@H](CCC(=O)O)NC(=O)[C@H](C)NC(=O)[C@H](CC(C)C)NC(=O)[C@H](CCCNC(=N)N)NC(=O)[C@H](CCC(N)=O)NC(=O)[C@@H](NC(=O)[C@H](C)NC(=O)[C@@H]1CSSC[C@H](NC(=O)[C@H](CCC(=O)O)NC(=O)[C@H](CCCNC(=N)N)NC(=O)[C@H](CCC(=O)O)NC(=O)CC[C@H](NC(=O)CCCCCCCCCCCCCCCCCCC(=O)O)C(=O)O)C(=O)N[C@@H](CC(N)=O)C(=O)N[C@@H]([C@@H](C)O)C(=O)N[C@@H](C)C(=O)N[C@@H]([C@@H](C)O)C(=O)N1)[C@@H](C)O)C(=O)N[C@@H](CC(C)C)C(=O)N1CCC[C@H]1C(=O)N1CCC[C@H]1C(=O)N[C@H](C(=O)N[C@@H](CCC(N)=O)C(=O)N[C@H](C(=O)NCC(=O)N[C@@H](CO)C(=O)N[C@@H](CCC(N)=O)C(=O)N[C@H](C(=O)N1CCC[C@H]1C(N)=O)[C@@H](C)O)C(C)C)[C@@H](C)O [Example 163, N-alpha-[(S)-4-Carboxy-4-(19-carboxynonadecanoylamino)butyryl]-Glu-Arg-[Glu1, Glu14, Arg17, Gln21, Gln31, Gln35, Pro37]-pramlintide] ({C20 diacid-γGlu}-ERECNTATCATQRLAEFLRHSSQNFGPILPPTQVGSQTP-NH2; disulfide 4-9) |
| >45 | >45 | CC[C@H](C)[C@H](NC(=O)[C@@H]1CCCN1C(=O)CNC(=O)[C@H](Cc1ccccc1)NC(=O)[C@H](CC(N)=O)NC(=O)[C@H](CC(N)=O)NC(=O)[C@H](CO)NC(=O)[C@H](CO)NC(=O)[C@H](Cc1c[nH]cn1)NC(=O)[C@H](CCCNC(=N)N)NC(=O)[C@H](CC(C)C)NC(=O)[C@H](Cc1ccccc1)NC(=O)[C@H](CCC(=O)O)NC(=O)[C@H](C)NC(=O)[C@H](CC(C)C)NC(=O)[C@H](CCCNC(=N)N)NC(=O)[C@H](CCC(N)=O)NC(=O)[C@@H](NC(=O)[C@H](C)NC(=O)[C@@H]1CSSC[C@H](NC(=O)CNC(=O)CC[C@H](NC(=O)CCCCCCCCCCCCCCCCCCC(=O)O)C(=O)O)C(=O)N[C@@H](CC(N)=O)C(=O)N[C@@H]([C@@H](C)O)C(=O)N[C@@H](C)C(=O)N[C@@H]([C@@H](C)O)C(=O)N1)[C@@H](C)O)C(=O)N[C@@H](CC(C)C)C(=O)N1CCC[C@H]1C(=O)N1CCC[C@H]1C(=O)N[C@H](C(=O)N[C@@H](CC(N)=O)C(=O)N[C@H](C(=O)NCC(=O)N[C@@H](CO)C(=O)N[C@@H](CC(N)=O)C(=O)N[C@H](C(=O)N1CCC[C@H]1C(N)=O)[C@@H](C)O)C(C)C)[C@@H](C)O [Example 88, N-alpha-[(S)-4-Carboxy-4-(19-carboxynonadecanoylamino)butyryl]-[Gly1, Glu14, Arg17, Pro37]-pramlintide] ({C20 diacid-γGlu}-GCNTATCATQRLAEFLRHSSNNFGPILPPTNVGSNTP-NH2; disulfide 2-7 (inferred); C-terminus assumed) |

— patent publication US9029325B2, “Amylin analogues and pharmaceutical compositions thereof” (Novo Nordisk A/S, priority 2011, dated 2015)
